Test results taken from patent US20040028714A1, “Composition having insect repellent characteristics” (priority 2000, published 2004).
Several values for one entry are separate records, joined by “and”; a condition that tells them apart may be missing. Equal entries are not always repeated.

Tests used:
Assay type in all cases: in vivo
[1] = test system: German cockroaches (Blatella Germanica); test: Cockroach repellency screening on partially treated formica surface (Example 2); conditions: 20 mg/m^2 on formica; for Number of Cockroaches present, Treated Section / Number of Cockroaches present, Untreated Section / Number of Cockroaches, Dead: single replicates (n = 20); for Number of Cockroaches present, Treated Section, Total / Number of Cockroaches present, Untreated Section, Total / Number of Cockroaches, Dead, Total: total of 4 replicates (80); for Percentage Dead / Percentage Present, Treated Section / Percentage Present, Untreated Section / Percentage Present, Treated Section, Average / Percentage Present, Untreated Section, Average: cockroaches; for Percentage Present, Treated Section, Average / Percentage Present, Untreated Section, Average: average of days 1, 2 and 3
Method: The effectiveness of compounds of formula I as an insect repellent was determined using German cockroaches exposed to a formica surface partially treated/partially untreated with a test compound of formula I. The study was conducted in an air conditioned laboratory at a temperature of 22°±2° C. under a normal day/night cycle, using German cockroaches (Blatella Germanica) of mixed sex and age. The study was conducted over a 3 day period and the repellent effectiveness assessed 1, 2 and 3 days after cockroach introduction. A rectangle of formica 40 cm×30 cm was treated at 20 mg/m^2 with a test compound of formula I. This was achieved by soaking a paper wipe (Rag on a Roll ca 20 cm×20 cm) in a solution of the test compound in ethanol, squeezing out the excess liquid and wiping over the surface to give the required coverage. This was checked by weighing the cloth after application. The surface was allowed to dry. A similar rectangle was wiped with ethanol alone (untreated surface). The treated formica rectangle was placed on the bench and a plastic container was placed on the rectangle. This had been treated with fluon to prevent cockroach escape. Two sheets of formica (10 cm×10 cm) were placed on the formica, one on the treated surface and one on the untreated surface. This acted as a cockroach harbourage. The formica sheet to be used in the treated section was treated at the same rate as the treated formica. The formica was placed on two 1 cm high bottle tops to allow cockroaches access under the formica. 20 German cockroaches were added (5 adults and 15 nymphs) to the centre of the formica. No food and water was supplied for these cockroaches. At 1, 2 and 3 days after cockroach introduction the number of cockroaches under each harbourage was counted. After each count the harbourage position was change to avoid the possibility of […] were replaced and new cockroaches were added to replace any dead cockroaches. The above was repeated 3 times to provide a total of 4 replicates.

[2] = test system: German cockroaches (Blatella Germanica); test: Cockroach repellency in tray with half-treated vinyl, compared with DEET and N-methyl-neodecanamide (Example 3); conditions: cockroaches, 20 mg/m^2 on vinyl
Method: The effectiveness of compound 2 (example 1) as an insect repellent was determined using German cockroaches exposed to a formica surface partially treated/partially un-treated, and was directly compared to the repellency of the well known insect repellents DEET (N,N-diethyl-meta-toluamide) and N-methyl-neodecanamide. The study was conducted in an air conditioned laboratory at a temperature of 22°±2° C. under a normal day/night cycle, using German cockroaches (Blatella Germanica) of mixed sex and age. The study was conducted over a 7 days period and the repellent effectiveness was assessed 1, 3, 5 and 7 days after cockroach introduction. Each tray used in the study consisted of a melamine square tray of sides 1.8m×1.8m and 20 cm high walls. The upper part of the wall was provided with electrical strip, which prevented cockroaches escaping. A square of vinyl 90 cm×180 cm was treated with the test compound at 20 mg/m^2. This was achieved by soaking a paper wipe (Rag on a Roll, ca. 20 cm×20 cm) in a solution of the test compound in ethanol, squeezing out the excess liquid and wiping over the surface to give the required coverage. This was checked by weighing the cloth after application. The surface was allowed to dry. The treated vinyl square was placed in one half of the tray. A similar untreated square was placed in the other half of the tray. This square was treated with ethanol alone. Two sheets of formica (30 cm×30 cm) were placed at one corner of each tray, one on the treated surface and one on the untreated surface. This acted as a cockroach harbourage. The formica sheet to be used in the treated section was treated at the same rate as the treated formica. The formica was placed on two 1 cm high bottle tops to allow cockroaches access under the formica. 50 German cockroaches were added (15 adults and 35 nymphs) to the middle of the tray. No food and water was supplied for these cockroaches. At 1, 2, 3 and 7 days after cockroach introduction the number of cockroaches under each harbourage was counted. After each count the harbourage position was change to avoid the possibility of habituation to one location, the harbourages were replaced and new cockroaches were added to replace any dead cockroaches. The above was repeated 3 times to provide a total of 4 replicates.

[3] = test system: Black Ants (Ochetellus sp); test: Ant repellency on half-treated formica (Example 4); conditions: ants, 20 mg/m^2 on formica
Method: The effectiveness of compound 2 (example 1) as an insect repellent was determined using ants exposed to a formica surface partially treated/partially untreated with compound 2, and was directly compared to the repellency of the well known insect repellents Farnesol and Dihydrofarnesal.
The study was conducted in an air conditioned laboratory at a temperature of 22°±2° C. under a normal day/night cycle, using Black Ants (Ochetellus sp) of mixed sex and age. The study ws conducted over a 3 day period and the repellent effectiveness assessed 1, 2 and 3 days after ant introduction.
One half of a rectangle of formica 40 cm×30 cm was treated at 20 mg/m^2 with the test compounds. This was achieved by soaking a paper wipe (Rag On A Roll approximately 20 cm×20 cm) in a solution of the test compound in ethanol, squeezing out the excess liquid and wiping over the surface to give the required coverage. This was checked by weighing the cloth after application. The surface was allowed to dry. The other half was wiped with ethanol alone (untreated surface).
The treated formica rectangle was placed on the bench and a glass ring (diameter 20 cm) was placed on the rectangle. This had been treated with fluon to prevent ant escape.
A small plastic container 2 cm in diameter was placed on the formica, one on the treated surface and one on the untreated surface. The plastic container placed on the treated surface had repellent applied in the same way as the treated formica. The plastic container on the untreated surface was wiped with ethanol.
24 hours after treatment (1 day) 20 ants were added to the centre of the formica. No food and water was supplied for these ants. 2 hours after this the number of ants on the treated and untreated surfaces was counted.
The above was repeated 3 times to provide a total of 4 replicates.
The above was repeated at 2 days and 3 days. New ants were used at each time period.

[4] = 1 day after cockroach introduction
[5] = 2 days after cockroach introduction
[6] = 3 days after cockroach introduction

SMILES | Percentage Dead ([1]; 1 day after treatment) [%] | Percentage Present, Treated Section ([1]; 1 day after treatment) [%] | Percentage Present, Untreated Section ([1]; 1 day after treatment) [%] | Percentage Dead ([1]; 2 days after treatment) [%] | Percentage Present, Treated Section ([1]; 2 days after treatment) [%] | Percentage Present, Untreated Section ([1]; 2 days after treatment) [%] | Percentage Dead ([1]; 3 days after treatment) [%] | Percentage Present, Treated Section ([1]; 3 days after treatment) [%] | Percentage Present, Untreated Section ([1]; 3 days after treatment) [%] | Percentage Present, Treated Section, Average [1] [%] | Percentage Present, Untreated Section, Average [1] [%] | further results
CNC(=O)C1CC(C)CCC1C(C)C (centres unmarked) [Compound 1, N-methyl-p-menthane-3-carboxamide] | 0 | 18.7 | 81.3 | 1.2 | 16.3 | 82.5 | 1.2 | 13.8 | 85.0 | 16.3 | 82.9 | Number of Cockroaches present, Treated Section [1, 4]: 5 and 3 and 7 and 0; Number of Cockroaches present, Untreated Section [1, 4]: 15 and 17 and 13 and 20; Number of Cockroaches, Dead [1, 4]: 0; Number of Cockroaches present, Treated Section, Total [1, 4]: 15; Number of Cockroaches present, Untreated Section, Total [1, 4]: 65; Number of Cockroaches, Dead, Total [1, 4]: 0; Number of Cockroaches present, Treated Section [1, 5]: 5 (2×) and 3 and 0; Number of Cockroaches present, Untreated Section [1, 5]: 15 and 17 and 14 and 20; Number of Cockroaches, Dead [1, 5]: 0 (3×) and 1; Number of Cockroaches present, Treated Section, Total [1, 5]: 13; Number of Cockroaches present, Untreated Section, Total [1, 5]: 66; Number of Cockroaches, Dead, Total [1, 5]: 1; Number of Cockroaches present, Treated Section [1, 6]: 4 (2×) and 3 and 0; Number of Cockroaches present, Untreated Section [1, 6]: 16 (3×) and 20; Number of Cockroaches, Dead [1, 6]: 0 (3×) and 1; Number of Cockroaches present, Treated Section, Total [1, 6]: 11; Number of Cockroaches present, Untreated Section, Total [1, 6]: 68; Number of Cockroaches, Dead, Total [1, 6]: 1
CCCNC(=O)C1CC(C)CCC1C(C)C (centres unmarked) [Compound 3, N-propyl-p-menthane-3-carboxamide] | 0 | 16.3 | 83.7 | 1.2 | 6.3 | 92.5 | 0 | 6.3 | 93.7 | 9.6 | 90.0 | –
CC1CCC(C(C)C)C(C(=O)Nc2ccccc2)C1 (centres unmarked) [Compound 4, N-phenyl-p-menthane-3-carboxamide] | 0 | 46.3 | 53.7 | 0 | 35.0 | 65.0 | 1.2 | 12.5 | 86.3 | 31.3 | 68.3 | –
CC1CCC(C(C)C)C(C(=O)N(C)C)C1 (centres unmarked) [Compound 5, N,N-dimethyl-p-menthane-3-carboxamide] | 0 | 15.0 | 85.0 | 1.2 | 10.0 | 88.8 | 1.2 | 15.0 | 83.8 | 13.3 | 85.9 | –
CCN(CC)C(=O)C1CC(C)CCC1C(C)C (centres unmarked) [Compound 6, N,N-diethyl-p-menthane-3-carboxamide] | 0 | 11.3 | 88.7 | 0 | 13.8 | 86.2 | 2.5 | 6.3 | 91.2 | 10.5 | 88.7 | –
CCN(CC)C(=O)c1cccc(C)c1 [DEET, N,N-diethyl-meta-toluamide, reference compound] | – | – | – | – | – | – | – | – | – | – | – | Percentage Dead ([2]; 1 day after treatment): 0.5%; Percentage Present, Treated Section ([2]; 1 day after treatment): 3.0%; Percentage Present, Untreated Section ([2]; 1 day after treatment): 96.5%; Percentage Dead ([2]; 2 days after treatment): 1.5%; Percentage Present, Treated Section ([2]; 2 days after treatment): 2.5%; Percentage Present, Untreated Section ([2]; 2 days after treatment): 96.0%; Percentage Dead ([2]; 3 days after treatment): 0.5%; Percentage Present, Treated Section ([2]; 3 days after treatment): 27.5%; Percentage Present, Untreated Section ([2]; 3 days after treatment): 72.0%; Percentage Dead ([2]; 7 days after treatment): 1.0%; Percentage Present, Treated Section ([2]; 7 days after treatment): 55.0%; Percentage Present, Untreated Section ([2]; 7 days after treatment): 44.0%
CC(C)=CCC/C(C)=C/CCC(C)CC=O (centres unmarked) [Dihydrofarnesal, reference compound] | – | – | – | – | – | – | – | – | – | – | – | Percentage Dead ([3]; 1 day after treatment): 0%; Percentage Present, Treated Section ([3]; 1 day after treatment): 20.0%; Percentage Present, Untreated Section ([3]; 1 day after treatment): 80.0%; Percentage Dead ([3]; 2 days after treatment): 0%; Percentage Present, Treated Section ([3]; 2 days after treatment): 21.2%; Percentage Present, Untreated Section ([3]; 2 days after treatment): 78.8%; Percentage Dead ([3]; 3 days after treatment): 0%; Percentage Present, Treated Section ([3]; 3 days after treatment): 12.5%; Percentage Present, Untreated Section ([3]; 3 days after treatment): 87.5%; Percentage Dead, Average ([3]; average of days 1, 2 and 3): 0%; Percentage Present, Treated Section, Average ([3]; average of days 1, 2 and 3): 17.9%; Percentage Present, Untreated Section, Average ([3]; average of days 1, 2 and 3): 82.1%; Percentage Present, Treated Section, Average ([3]; average of days 1, 2 and 3, listed as Dihydrofarnesol): approximately 17%
